Where a name gives a salt, the structure may show the parent alone.

The first assay relates to Acinetobacter baumannii ATCC17978. Kind of assay: Antimicrobial susceptibility testing: 90% growth inhibitory concentration (IC90) determination, Iso-Sensitest broth. The assay is classed as cell-based. The settings on record: 90% growth inhibitory concentration, Acinetobacter baumannii ATCC17978, Iso-Sensitest broth, OD 600 nm over 16 h; read-out: ATCC17978 IC90. In short, it runs like this:
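A. baumannii ATCC17978 grown in Iso-Sensitest broth across 10 compound concentrations at 35±2 °C.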
On to `Cc1cc(Nc2nccn3c(-c4ccc(OCCCC#N)c(F)c4F)cnc23)ccc1C(=O)N1CCC(CN)CC1` [Example 120, 4-(4-(8-((4-(4-(aminomethyl)piperidine-1-carbonyl)-3-methylphenyl)amino)imidazo[1,2-a]pyrazin-3-yl)-2,3-difluorophenoxy)butanenitrile], for which the IC90 is 1000 nM.
Same read-out and setting: the value for `Cc1cc(Nc2nccn3c(-c4ccc(Oc5ccccn5)c(F)c4F)cnc23)ccc1C(=O)N1CCC(CN)CC1` [Example 122, [4-(aminomethyl)-1-piperidyl]-[4-[[3-[2,3-difluoro-4-(2-pyridyloxy)phenyl]imidazo[1,2-a]pyrazin-8-yl]amino]-2-methyl-phenyl]methanone formate] was 320 nM; that for `Cc1cc(Nc2nccn3c(-c4ccc(Oc5ccncc5)c(F)c4F)cnc23)ccc1C(=O)N1CCC(CN)CC1` [Example 123, [4-(aminomethyl)-1-piperidyl]-[4-[[3-[2,3-difluoro-4-(4-pyridyloxy)phenyl]imidazo[1,2-a]pyrazin-8-yl]amino]-2-methyl-phenyl]methanone] was 760 nM; that for `Cc1cc(Nc2nccn3c(-c4ccc(OCc5cccnc5)c(F)c4F)cnc23)ccc1C(=O)N1CCC(CN)CC1` [Example 124, [4-(aminomethyl)-1-piperidyl]-[4-[[3-[2,3-difluoro-4-(3-pyridylmethoxy)phenyl]imidazo[1,2-a]pyrazin-8-yl]amino]-2-methyl-phenyl]methanone formate] was 900 nM.
Still for that read-out and setting: the value for `Cc1cc(Nc2nccn3c(-c4ccc(OCc5ccccn5)c(F)c4F)cnc23)ccc1C(=O)N1CCC(CN)CC1` [Example 125, [4-(aminomethyl)-1-piperidyl]-[4-[[3-[2,3-difluoro-4-(2-pyridylmethoxy)phenyl]imidazo[1,2-a]pyrazin-8-yl]amino]-2-methyl-phenyl]methanone; formic acid] was 1700 nM; that for `Cc1cc(Nc2nccn3c(-c4ccc(OCc5ccccc5)c(F)c4F)cnc23)ccc1C(=O)N1CCC(CN)CC1` [Example 126, [4-(aminomethyl)-1-piperidyl]-[4-[[3-(4-benzyloxy-2,3-difluoro-phenyl)imidazo[1,2-a]pyrazin-8-yl]amino]-2-methyl-phenyl]methanone formate] was 3600 nM.
For the compound `Cc1cc(Nc2nccn3c(-c4ccc(OCc5ccncc5)c(F)c4F)cnc23)ccc1C(=O)N1CCC(CN)CC1` [Example 127, [4-(aminomethyl)-1-piperidyl]-[4-[[3-[2,3-difluoro-4-(4-pyridylmethoxy)phenyl]imidazo[1,2-a]pyrazin-8-yl]amino]-2-methyl-phenyl]methanone formate], the IC90 was 910 nM.
Same read-out and setting: under `Cc1cc(Nc2nccn3c(-c4ccc(OC(F)F)cc4)cnc23)ccc1C(=O)N1CCNCC1` [Example 129, [4-[[3-[4-(difluoromethoxy)phenyl]imidazo[1,2-a]pyrazin-8-yl]amino]-2-methyl-phenyl]-piperazin-1-yl-methanone hydrochloride] stands 910 nM.
The same measure, in the same setting: under `COc1ccc(-c2cnc3c(Nc4ccc(C(=O)N5CCNCC5)c(C)c4)nccn23)cc1F` [Example 130, [4-[[3-(3-fluoro-4-methoxy-phenyl)imidazo[1,2-a]pyrazin-8-yl]amino]-2-methyl-phenyl]-piperazin-1-yl-methanone hydrochloride] stands 430 nM.
On the same count and under the same terms, under `Cc1cc(Nc2nccn3c(-c4ccc(OC(F)F)cc4)cnc23)ccc1C(=O)N1CCN(C(=O)N2CCOC(CN(C)C)C2)CC1` (stereo not shown) [Example 132, [4-[[3-[4-(difluoromethoxy)phenyl]imidazo[1,2-a]pyrazin-8-yl]amino]-2-methyl-phenyl]-[4-[2-[(dimethylamino)methyl]morpholine-4-carbonyl]piperazin-1-yl]methanone] stands 300 nM.
In the case of `Cc1cc(Nc2nccn3c(-c4ccc(OC(F)F)cc4)cnc23)ccc1C(=O)N1CCN(C(=O)N2CCNC(CO)C2)CC1` (stereo not shown) [Example 133, [4-[[3-[4-(difluoromethoxy)phenyl]imidazo[1,2-a]pyrazin-8-yl]amino]-2-methyl-phenyl]-[4-[3-(hydroxymethyl)piperazine-1-carbonyl]piperazin-1-yl]methanone hydrochloride], the IC90 was 230 nM.
For `Cc1cc(Nc2nccn3c(-c4ccc(OC(F)F)cc4)cnc23)ccc1C(=O)N1CCN(C(=O)N2CCOC(CN)C2)CC1` (stereo not shown) [Example 134, [4-[2-(aminomethyl)morpholine-4-carbonyl]piperazin-1-yl]-[4-[[3-[4-(difluoromethoxy)phenyl]imidazo[1,2-a]pyrazin-8-yl]amino]-2-methyl-phenyl]methanone hydrochloride], the IC90 was found to be 260 nM.
On to `Cc1cc(Nc2nccn3c(-c4ccc(OC(F)F)cc4)cnc23)ccc1C(=O)N1CCN(C(=O)N(C)C)CC1` [Example 135, 4-[4-[[3-[4-(difluoromethoxy)phenyl]imidazo[1,2-a]pyrazin-8-yl]amino]-2-methyl-benzoyl]-N,N-dimethyl-piperazine-1-carboxamide], for which the IC90 turned out to be 280 nM.
The same measure, in the same setting: under `CNCC1CN(C(=O)N2CCN(C(=O)c3ccc(Nc4nccn5c(-c6ccc(OC(F)F)cc6)cnc45)cc3C)CC2)CCO1` (stereo not shown) [Example 136, [4-[[3-[4-(difluoromethoxy)phenyl]imidazo[1,2-a]pyrazin-8-yl]amino]-2-methyl-phenyl]-[4-[2-(methylaminomethyl)morpholine-4-carbonyl]piperazin-1-yl]methanone hydrochloride] stands 270 nM.
The same measure, in the same setting: the value for `Cc1cc(Nc2nccn3c(-c4ccc(OCC#N)c(F)c4F)cnc23)ccc1C(=O)N1CCN(C(=O)N2CCNCC2)CC1` [Example 137, 2-[2,3-difluoro-4-[8-[3-methyl-4-[4-(piperazine-1-carbonyl)piperazine-1-carbonyl]anilino]imidazo[1,2-a]pyrazin-3-yl]phenoxy]acetonitrile formate] was 130 nM; that for `Cc1cc(Nc2nccn3c(-c4ccc(OC(F)F)cc4)cnc23)ccc1C(=O)N1CCN(C(=O)N[C@H]2CCNC2)CC1` [Example 138, 4-[4-[[3-[4-(difluoromethoxy)phenyl]imidazo[1,2-a]pyrazin-8-yl]amino]-2-methyl-benzoyl]-N-[(3S)-pyrrolidin-3-yl]piperazine-1-carboxamide hydrochloride] was 110 nM; that for `Cc1cc(Nc2nccn3c(-c4ccc(OCC#N)c(F)c4F)cnc23)ccc1C(=O)N1CCN(C(=O)NCCN)CC1` [Example 139, N-(2-aminoethyl)-4-[4-[[3-[4-(cyanomethoxy)-2,3-difluoro-phenyl]imidazo[1,2-a]pyrazin-8-yl]amino]-2-methyl-benzoyl]piperazine-1-carboxamide formate] was 130 nM.
Regarding `COc1ccc(-c2cnc3c(Nc4ccc(C(=O)N5CCN(C(=O)N6CCO[C@H](CN)C6)CC5)c(C)c4)nccn23)c(F)c1F` [Example 140, [4-[(2R)-2-(aminomethyl)morpholine-4-carbonyl]piperazin-1-yl]-[4-[[3-(2,3-difluoro-4-methoxy-phenyl)imidazo[1,2-a]pyrazin-8-yl]amino]-2-methyl-phenyl]methanone formate], the IC90 was found to be 190 nM.
Same read-out and setting: the value for `Cc1cc(Nc2nccn3c(-c4ccc(OC(F)F)cc4)cnc23)ccc1C(=O)N1CCN(C(=O)N[C@@H]2CCNC2)CC1` [Example 142, 4-[4-[[3-[4-(difluoromethoxy)phenyl]imidazo[1,2-a]pyrazin-8-yl]amino]-2-methyl-benzoyl]-N-[(3R)-pyrrolidin-3-yl]piperazine-1-carboxamide hydrochloride] was 150 nM; that for `Cc1cc(Nc2nccn3c(-c4ccc(OC(F)F)cc4)cnc23)ccc1C(=O)N1CCN(C(=O)NC2CCNCC2)CC1` [Example 143, 4-[4-[[3-[4-(difluoromethoxy)phenyl]imidazo[1,2-a]pyrazin-8-yl]amino]-2-methyl-benzoyl]-N-(4-piperidyl)piperazine-1-carboxamide hydrochloride] was 160 nM; that for `Cc1cc(Nc2nccn3c(-c4ccc(OC(F)F)cc4)cnc23)ccc1C(=O)N1CCN(C(=O)NCC2CNC2)CC1` [Example 144, N-(azetidin-3-ylmethyl)-4-[4-[[3-[4-(difluoromethoxy)phenyl]imidazo[1,2-a]pyrazin-8-yl]amino]-2-methyl-benzoyl]piperazine-1-carboxamide formate] was 130 nM.
For the compound `COc1ccc(-c2cnc3c(Nc4ccc(C(=O)N5CCN(C(=O)N6CCO[C@@H](CN)C6)CC5)c(C)c4)nccn23)c(F)c1F` [Example 145, [4-[(2S)-2-(aminomethyl)morpholine-4-carbonyl]piperazin-1-yl]-[4-[[3-(2,3-difluoro-4-methoxy-phenyl)imidazo[1,2-a]pyrazin-8-yl]amino]-2-methyl-phenyl]methanone formate], the IC90 is 170 nM.
For the compound `Cc1cc(Nc2nccn3c(-c4ccc(OC(F)F)cc4)cnc23)ccc1C(=O)N1CCN(C(=O)N2CCO[C@@H](CN)C2)CC1` [Example 146, [4-[(2S)-2-(aminomethyl)morpholine-4-carbonyl]piperazin-1-yl]-[4-[[3-[4-(difluoromethoxy)phenyl]imidazo[1,2-a]pyrazin-8-yl]amino]-2-methyl-phenyl]methanone formate], the IC90 was determined as 300 nM.
`COc1ccc(-c2cnc3c(Nc4ccc(C(=O)N5CCN(C(=O)N[C@@H](C)CN)CC5)c(C)c4)nccn23)c(F)c1F` [Example 147, N-[(1S)-2-amino-1-methyl-ethyl]-4-[4-[[3-(2,3-difluoro-4-methoxy-phenyl)imidazo[1,2-a]pyrazin-8-yl]amino]-2-methyl-benzoyl]piperazine-1-carboxamide hydrochloride]: the IC90 amounted to 210 nM.

Still in this assay, the particulars now being: Acinetobacter baumannii, ATCC17978, 16 h, read-out: ATCC17978 IC90, 90% growth inhibitory concentration, Acinetobacter baumannii ATCC17978, Iso-Sensitest broth, OD 600 nm over 16 h.
For the compound `Cc1cc(Nc2nccn3c(-c4ccc(OC(F)F)cc4)cnc23)ccc1C(=O)N1CCN(C(=O)N2CCN(C)CC2)CC1` [Example 128, [4-[[3-[4-(difluoromethoxy)phenyl]imidazo[1,2-a]pyrazin-8-yl]amino]-2-methyl-phenyl]-[4-(4-methylpiperazine-1-carbonyl)piperazin-1-yl]methanone formate], the IC90 worked out at 190 nM.

For the origin of these results see patent US20230011869A1 (Hoffmann-La Roche Inc., priority 2018, published 2023).
